Results as given in PubChem BioAssay (NCI).
Values joined by “and” are separate entries in the source; they are usually repeats but may differ in a detail not shown here. Identical values can stand only once.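 These data come from cells grown in 96-well plates and exposed to compound for 48 hours at five concentrations. GI50 is the concentration that inhibits growth by half. TGI is the concentration that stops growth completely.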

Tests used:
Experiment in all cases: DTP human tumour cell line panel, 48 h
[1] = tested on: CCRF-CEM leukemia
[2] = tested on: HOP-92 NSCLC
[3] = tested on: MALME-3M melanoma
[4] = tested on: MCF7 breast
[5] = tested on: NCI-H460 lung
[6] = tested on: NCI-H522 lung
[7] = tested on: OVCAR-4 ovarian
[8] = tested on: RXF 393 renal
[9] = tested on: SK-MEL-2 melanoma
[10] = tested on: SK-MEL-5 melanoma

## C=C1C(=O)O[C@@H]2/C=C(/C)[C@@H](OC(C)=O)C[C@@H](O)/C(C)=C\[C@@H](OC(=O)[C@]3(C)O[C@@H]3C)[C@@H]12
[1]
  TGI: 11.7 µM
[2]
  TGI: 26.7 µM
[3]
  TGI: 11.6 µM
[4]
  TGI: 18.1 µM
[5]
  TGI: 72.9 µM
[6]
  TGI: 2.81 µM
[7]
  TGI: 45.8 µM
[8]
  TGI: 29.3 µM
[9]
  TGI: 33.9 µM
[10]
  TGI: 24.7 µM

## Cc1c(C(=O)Nc2ccc(N3C[C@@H](C)O[C@@H](C)C3)nc2)cccc1-c1ccc(OC(F)(F)F)cc1
[1]
  GI50: 9.77 µM and 50 µM
  TGI: > 100 µM
[2]
  GI50: 2.51 µM and 1.79 µM
  TGI: 13.7 µM and 13 µM
[3]
  GI50: 12.1 µM and 13.3 µM
  TGI: 46.2 µM and 46 µM
[4]
  GI50: 8.25 µM and 15.4 µM
  TGI: 31 µM and 49 µM
[5]
  GI50: 8.67 µM and 6.79 µM
  TGI: > 68.6 µM and 83.7 µM
[6]
  GI50: 9.14 µM and 10.2 µM
  TGI: 33.9 µM and 34.9 µM
[7]
  GI50: 4.28 µM and 11.5 µM
  TGI: 21.4 µM and 36.2 µM
[8]
  GI50: 12.3 µM and 13.7 µM
  TGI: 29.2 µM and 32.1 µM
[9]
  GI50: 13.1 µM and 21.6 µM
  TGI: 44.9 µM and > 100 µM
[10]
  GI50: 3.83 µM and 5.23 µM
  TGI: 20.8 µM and 38.3 µM

## CN(C(=O)C(C)(C)C)c1ccccc1I(=O)=O
[1]
  GI50: 8.62 µM
  TGI: 31.6 µM
[2]
  GI50: 15.9 µM
  TGI: 96.7 µM
[3]
  GI50: 27.4 µM
  TGI: > 100 µM
[4]
  GI50: > 100 µM
  TGI: > 100 µM
[5]
  GI50: > 100 µM
  TGI: > 100 µM
[6]
  GI50: 16.1 µM
  TGI: 30 µM
[7]
  GI50: > 100 µM
  TGI: > 100 µM
[8]
  GI50: > 100 µM
  TGI: > 100 µM
[9]
  GI50: > 100 µM
  TGI: > 100 µM
[10]
  GI50: 74.1 µM
  TGI: > 100 µM

## COc1nn(C)cc1Nc1nccc(-c2c[nH]c3c(NC(=O)[C@@H](C)N4CCN(C)CC4)cccc23)n1
[1]
  GI50: 40.4 µM
  TGI: > 100 µM
[2]
  GI50: 41.7 µM
  TGI: > 100 µM
[3]
  GI50: 20.1 µM
  TGI: 73.1 µM
[4]
  GI50: 31.7 µM
  TGI: > 100 µM
[5]
  GI50: 40.7 µM
  TGI: > 100 µM
[6]
  GI50: 43.2 µM
  TGI: > 100 µM
[7]
  GI50: 47.9 µM
  TGI: > 100 µM
[8]
  GI50: 16.6 µM
  TGI: 42.2 µM
[9]
  GI50: 25 µM
  TGI: 74.5 µM
[10]
  GI50: 18.5 µM
  TGI: 36.5 µM

## CCC(=O)NC1=C(Cl)C(=O)C(NC(=O)CC)=C(Cl)C1=O
[1]
  GI50: 3.04 µM
  TGI: > 21.6 µM
[2]
  GI50: 9.98 µM
  TGI: 28.8 µM
[3]
  GI50: 5.17 µM
  TGI: 10.1 µM
[4]
  GI50: 9.51 µM
  TGI: 28.3 µM
[5]
  GI50: > 45.7 µM
  TGI: > 63.3 µM
[6]
  GI50: 5.86 µM
  TGI: 10.7 µM
[7]
  GI50: 14.4 µM
  TGI: 29 µM
[8]
  GI50: 6.64 µM
  TGI: 12.8 µM
[9]
  GI50: 20.6 µM
  TGI: 39.5 µM
[10]
  GI50: 17.6 µM
  TGI: 31.7 µM

## COC(=O)C1=C(C)NC(C)=C(C(=O)OC)C1c1cccc(/[N+]([O-])=C/c2ccccc2)c1
[1]
  TGI: 44.8 µM
[2]
  TGI: 38 µM
[3]
  TGI: 29.9 µM
[4]
  TGI: 34.3 µM
[5]
  TGI: > 100 µM
[6]
  TGI: 30.2 µM
[7]
  TGI: 30.2 µM
[8]
  TGI: 30.3 µM
[9]
  TGI: > 100 µM
[10]
  TGI: > 100 µM

## CC(=O)OC1CC2(C)C(=CC1C1SCCS1)CCC1C2CCC2(C)C(OC(C)=O)CCC12 (stereo not given)
[1]
  TGI: > 100 µM
[2]
  TGI: > 100 µM
[3]
  TGI: > 100 µM
[4]
  TGI: > 100 µM
[5]
  TGI: > 100 µM
[6]
  TGI: > 100 µM
[7]
  TGI: > 100 µM
[8]
  TGI: 67.3 µM
[9]
  TGI: > 100 µM
[10]
  TGI: > 100 µM

## CCC[CH2][Sn]1([CH2]CCC)[O]C(=O)c2cccc([N+](=O)[O-])c2C(=O)[O]1
[1]
  GI50: 0.0617 µM
  TGI: 0.683 µM
[2]
  GI50: 0.228 µM
  TGI: 1.66 µM
[3]
  GI50: 0.189 µM
  TGI: 0.623 µM
[4]
  GI50: 0.244 µM
  TGI: 1.13 µM
[5]
  GI50: 1.66 µM
  TGI: 3.57 µM
[6]
  GI50: 0.0711 µM
  TGI: 0.217 µM
[7]
  GI50: 0.465 µM
  TGI: 1.73 µM
[8]
  GI50: 0.27 µM
  TGI: 0.783 µM
[9]
  GI50: 0.286 µM
  TGI: 0.825 µM
[10]
  GI50: 0.919 µM
  TGI: 2.22 µM

## COC(=O)CC[C@@H](C)[C@H]1CC[C@H]2[C@@H]3CC[C@@H]4C[C@H](O)CC[C@]4(C)[C@H]3CC[C@]12C
[1]
  TGI: 46.4 µM
[2]
  TGI: 27.8 µM
[3]
  TGI: 34.8 µM
[4]
  TGI: 36.3 µM
[5]
  TGI: 39.9 µM
[6]
  TGI: 46.8 µM
[7]
  TGI: 36.5 µM
[8]
  TGI: 33 µM
[9]
  TGI: 34.2 µM
[10]
  TGI: 31 µM

## Clc1ccc2c(NC3CCC(N4CCCCC4)CC3)ccnc2c1 (stereo not given)
[1]
  TGI: > 100 µM
[2]
  TGI: 29.9 µM
[3]
  TGI: 36.1 µM
[4]
  TGI: > 100 µM
[5]
  TGI: 33.2 µM
[6]
  TGI: 51.6 µM
[7]
  TGI: 78.6 µM
[8]
  TGI: 43.7 µM
[9]
  TGI: 33.9 µM
[10]
  TGI: 30.6 µM

## CCN1CCN(c2ccc(NC(=O)Nc3nc4ccc(-c5ccccc5OC)cc4s3)cc2)CC1
[1]
  GI50: 1.81 µM
  TGI: 4.09 µM
[2]
  GI50: 1.47 µM
  TGI: 3.75 µM
[3]
  GI50: 1.71 µM
  TGI: 3.34 µM
[4]
  GI50: 1.31 µM
  TGI: 2.86 µM
[5]
  GI50: 1.77 µM
  TGI: 3.27 µM
[6]
  GI50: 1.75 µM
  TGI: 3.5 µM
[7]
  GI50: 1.68 µM
  TGI: 3.31 µM
[8]
  GI50: 1.7 µM
  TGI: 3.3 µM
[9]
  GI50: 1.94 µM
  TGI: 3.61 µM
[10]
  GI50: 1.73 µM
  TGI: 3.12 µM

## O=C1OC(OC/C(Br)=C(\Br)COC2OC(=O)C(Cl)=C2Cl)C(Cl)=C1Cl (stereo not given)
[1]
  TGI: 2.34 µM
[2]
  TGI: 10.7 µM
[3]
  TGI: 9.02 µM
[4]
  TGI: 25.4 µM
[5]
  TGI: 33.6 µM
[6]
  TGI: 3.24 µM
[7]
  TGI: 19.3 µM
[8]
  TGI: 6.1 µM
[9]
  TGI: 35.9 µM
[10]
  TGI: 22.3 µM

## Cc1ccc(NC(=O)COc2ccc(Cl)cc2)cc1Cl
[1]
  TGI: 85.9 µM
[2]
  TGI: > 100 µM
[3]
  TGI: > 100 µM
[4]
  TGI: > 100 µM
[5]
  TGI: > 100 µM
[6]
  TGI: > 100 µM
[7]
  TGI: > 100 µM
[8]
  TGI: > 100 µM
[9]
  TGI: > 100 µM
[10]
  TGI: > 100 µM

## Cn1nc(C(F)(F)F)cc1-c1cc(Cl)c(OCc2ccc(Cl)cc2)c(-c2ccc(Cl)c(C(F)(F)F)c2)c1O
[1]
  GI50: 0.821 µM
  TGI: 19.6 µM
[2]
  GI50: 0.554 µM
  TGI: 2.1 µM
[3]
  GI50: 1.06 µM
  TGI: 2.57 µM
[4]
  GI50: 1.01 µM
  TGI: 5.33 µM
[5]
  GI50: 0.852 µM
  TGI: 2.21 µM
[6]
  GI50: 0.731 µM
  TGI: 5.09 µM
[7]
  GI50: 1.66 µM
  TGI: 7.14 µM
[8]
  GI50: 1.01 µM
  TGI: 3.11 µM
[9]
  GI50: 0.919 µM
  TGI: 2.34 µM
[10]
  GI50: 0.777 µM
  TGI: 1.74 µM

## Cc1[nH]nc(C(F)(F)F)c1Cc1sc2c(c1C(=O)N1C[C@](C)(O)CO1)c(=O)n(C)c(=O)n2C(C)C
[1]
  GI50: > 100 µM
  TGI: > 100 µM
[2]
  GI50: > 100 µM
  TGI: > 100 µM
[3]
  GI50: > 100 µM
  TGI: > 100 µM
[4]
  GI50: > 100 µM
  TGI: > 100 µM
[5]
  GI50: > 100 µM
  TGI: > 100 µM
[6]
  GI50: 3.26 µM
  TGI: > 100 µM
[7]
  GI50: > 100 µM
  TGI: > 100 µM
[8]
  GI50: > 100 µM
  TGI: > 100 µM
[9]
  GI50: > 100 µM
  TGI: > 100 µM
[10]
  GI50: > 100 µM
  TGI: > 100 µM
